Results: article PMC12118597 (Science Advances, 2025)
Where “and” joins values, the source holds several entries; their conditions need not be identical. Equal entries are not always repeated. Where two headings read alike, the source gives them in different places.

Target: SARS-CoV-2 NSP3 macrodomain (Mac1) (Severe acute respiratory syndrome coronavirus 2, UniProt P0DTD1)
Assay type: binding
Conditions: for 1-BDC (PanDDA run, DMSO background map): event 1; for 2*(1-BDC) (%): occupancy estimate from PanDDA; for Total number of conformations: ligand conformations modeled in the crystal structure
[1] = TRUE = ligand-bound crystal structure obtained (PDB code given)
[2] = crystal soak concentration 20 mM, DMSO background map
[3] = crystal soak concentration 20 mM, P43 crystals
[4] = site of Mac1 occupied in the X-ray crystal structure (Adenosine or Distal)
[5] = soak concentration 10 mM, DMSO background map
[6] = soak concentration 10 mM, P43 crystals
[7] = PanDDA background density correction factor
[8] = refined crystallographic occupancy
[9] = crystal soak 10 mM, P43 crystal form
[10] = crystal soak 10 mM, DMSO background map
[11] = TRUE = crystal structure with ligand obtained
[12] = site of Mac1 occupied in the X-ray crystal structure
[13] = crystal soak 5 mM, P43 crystal form
[14] = crystal soak 5 mM, DMSO background map
[15] = site of ligand in X-ray crystal structure

Compound | 2*(1-BDC) (%) | Occupancy difference (refined_occupancy - 2*(1-BDC)) | 1-BDC [7] | Total number of conformations | Refined ligand occupancy (%) [8] [%] | PanDDA run, overall: Hit [9] | PanDDA run, DMSO background map: 1-BDC [10] | PanDDA run, DMSO background map: Hit [10] | X-ray crystal structure [11] | Binding site [15] | PanDDA run, overall: Modeled [9] | further results
CNc1ccc(NS(=O)(=O)c2cc3cccc(C)c3s2)cn1 [AVI-345] | 52 |  |  |  |  |  |  |  |  |  |  | 1-BDC (PanDDA background density correction, 1-BDC): 0.26; X-ray crystal structure [1]: TRUE; Hit (PanDDA run, DMSO background map) [2]: TRUE; Modeled (PanDDA run, DMSO background map) [2]: TRUE; 1-BDC (PanDDA run, DMSO background map) [2]: 0.26; Hit (PanDDA run, overall) [3]: TRUE; Modeled (PanDDA run, overall) [3]: TRUE; Refined ligand occupancy (%) (crystallographic refinement): 52%; Binding site [4]: Adenosine; PanDDA run, DMSO background map: 1-BDC [5]: 0.17; PanDDA run, DMSO background map: Hit [5]: TRUE; PanDDA run, overall: Hit [6]: TRUE; PanDDA run, overall: Modeling comment [6]: Duplicate, not modeled
CC1CCN(C(=O)c2ccc3c(c2)nc(CO)n3C)CC1C(=O)O (stereo not shown) [AVI-348] | 50 | 0 | 0.25 | 1 | 50 |  |  |  |  |  |  | X-ray crystal structure [1]: TRUE; Hit (PanDDA run, DMSO background map) [2]: TRUE; 1-BDC (PanDDA run, DMSO background map) [2]: 0.34; Hit (PanDDA run, overall) [3]: TRUE; Modeling comment (PanDDA run, overall) [3]: Duplicate, not modeled; Binding site [4]: Adenosine; PanDDA run, DMSO background map: 1-BDC [5]: 0.25; PanDDA run, DMSO background map: Hit [5]: TRUE; PanDDA run, DMSO background map: Modeled [5]: TRUE; PanDDA run, overall: Hit [6]: TRUE; PanDDA run, overall: Modeled [6]: TRUE
OC[C@@H]1C[C@H](F)CN1c1ncnc2[nH]ccc12 [AVI-609] | 34 | 0 | 0.17 | 1 | 34 | TRUE | 0.17 | TRUE |  |  |  | X-ray crystal structure (ligand-bound crystal structure obtained (TRUE)): TRUE; Binding site (site occupied in X-ray crystal structure): Adenosine
NC(=O)C1(O)CCN(c2ncnc3[nH]ccc23)C1 (stereo not shown) [AVI-611] | 44 | 0 | 0.22 | 2 | 44 | TRUE | 0.22 | TRUE | TRUE |  |  | Binding site [12]: Adenosine
CCC1(O)CCN(c2ncnc3[nH]ccc23)C1 (stereo not shown) [AVI-612] | 34 | 0 | 0.17 | 1 | 34 |  |  |  | TRUE |  |  | PanDDA run, overall: Hit [13]: TRUE; PanDDA run, DMSO background map: 1-BDC [14]: 0.17; PanDDA run, DMSO background map: Hit [14]: TRUE; Binding site [12]: Adenosine
CN(C)C[C@@]1(O)CCCN(c2ncnc3[nH]ccc23)C1 [AVI-614] |  |  |  |  |  | TRUE | 0.17 | TRUE |  |  |  | PanDDA run, overall: Modeling comment (crystal soak 10 mM): Weak density, not modeled
O[C@@H]1CN(c2ncnc3[nH]ccc23)C[C@H]1F [AVI-616] | 40 | 0 | 0.2 | 1 | 40 | TRUE | 0.2 | TRUE | TRUE |  |  | Binding site [12]: Adenosine
O[C@@H]1COC[C@H]1Nc1ncnc2[nH]ccc12 [AVI-1443] |  |  |  |  |  |  |  |  |  |  |  | PanDDA run, overall: Modeling comment (crystal soak 5 mM): Weak density, not modeled; PanDDA run, overall: Hit [13]: TRUE; PanDDA run, DMSO background map: 1-BDC [14]: 0.05 and 0.04; PanDDA run, DMSO background map: Hit [14]: TRUE
O[C@H]1COC[C@@H]1Nc1ncnc2[nH]ccc12 [AVI-1444, (3R,4S)-4-((7H-pyrrolo[2,3-d]pyrimidin-4-yl)amino)tetrahydrofuran-3-ol] | 16 | 0 | 0.08 | 1 | 16 | TRUE | 0.08 and 0.11 | TRUE | TRUE | Adenosine |  | 
O=C(O)C(F)(F)F.OC1c2ccccc2CC1Nc1ncnc2[nH]ccc12 (stereo not shown) [AVI-3634] |  |  |  |  |  |  |  |  |  |  |  | PanDDA run, overall: Modeling comment (crystal soak 10 mM): TFA only
CCC(Nc1ncnc2[nH]ccc12)C(C)O (stereo not shown) [AVI-3635] | 28 | 0 | 0.14 | 2 | 28 | TRUE | 0.23 and 0.14 | TRUE | TRUE | Adenosine | TRUE | 
OCC(CC(F)(F)F)Nc1ncnc2[nH]ccc12 (stereo not shown) [AVI-3637] | 46 | 0 | 0.23 | 1 | 46 | TRUE | 0.23 | TRUE | TRUE | Adenosine |  | 
OCC(Nc1ncnc2[nH]ccc12)C1CCC1 (stereo not shown) [AVI-3638] | 26 | 0 | 0.13 | 1 | 26 | TRUE | 0.13 | TRUE | TRUE | Adenosine | TRUE | 
O=C(O)C(F)(F)F.O[C@H]1CCC[C@@H]1Nc1ncnc2[nH]ccc12 [AVI-3639] | 22 | 0 | 0.11 | 1 | 22 | TRUE | 0.11 | TRUE | TRUE | Adenosine | TRUE | 
OCC(CC1CCC1)Nc1ncnc2[nH]ccc12 (stereo not shown) [AVI-3641] | 36 | 0 | 0.18 | 1 | 36 | TRUE | 0.18 | TRUE | TRUE | Adenosine | TRUE | 
OCC(CC(O)c1ccccc1)Nc1ncnc2[nH]ccc12 (stereo not shown) [AVI-3642] | 34 | 0 | 0.17 | 1 | 34 | TRUE | 0.17 | TRUE | TRUE | Adenosine | TRUE | 
